Source: ChEMBL document CHEMBL1136358, “Discovery and initial SAR of 2-amino-5-carboxamidothiazoles as inhibitors of the Src-family kinase p56(Lck)” (Bioorg Med Chem Lett, 2003)

Key:
[1] = molecular target: T1, Tyrosine-protein kinase Lck (Homo sapiens, UniProt P06239)
Description: Inhibitory activity human Lck(hLck) kinase

[2] = molecular target: T2, Proto-oncogene tyrosine-protein kinase LCK (Mus musculus, UniProt P06240); test: In vitro inhibition of murine Lck kinase.
[3] = molecular target: T1, Tyrosine-protein kinase Lck; test: Inhibition of human p56 Lck tyrosine kinase
[4] = molecular target: T2, Proto-oncogene tyrosine-protein kinase LCK; test: Inhibition of mouse p56 Lck tyrosine kinase
[5] = molecular target: T2, Proto-oncogene tyrosine-protein kinase LCK; test: Inhibition of mouse Lck(mLck) kinase at 50 uM (Inactive)
[6] = molecular target: T1, Tyrosine-protein kinase Lck; test: Inhibition of human Lck(hLck) kinase at 50 uM (Inactive)
[7] = molecular target: Proto-oncogene tyrosine-protein kinase Src (Homo sapiens, UniProt P12931); test: Inhibition of Src kinase
[8] = molecular target: Receptor tyrosine-protein kinase erbB-2 (Homo sapiens, UniProt P04626); test: Inhibition of HER2 kinase
[9] = molecular target: Tyrosine-protein kinase HCK (Homo sapiens, UniProt P08631); test: Inhibition of Hck kinase
[10] = molecular target: T3, Tyrosine-protein kinase JAK3 (Homo sapiens, UniProt P52333); test: Inhibition of Jak3 kinase
T3 sequence (P52333 whole entry): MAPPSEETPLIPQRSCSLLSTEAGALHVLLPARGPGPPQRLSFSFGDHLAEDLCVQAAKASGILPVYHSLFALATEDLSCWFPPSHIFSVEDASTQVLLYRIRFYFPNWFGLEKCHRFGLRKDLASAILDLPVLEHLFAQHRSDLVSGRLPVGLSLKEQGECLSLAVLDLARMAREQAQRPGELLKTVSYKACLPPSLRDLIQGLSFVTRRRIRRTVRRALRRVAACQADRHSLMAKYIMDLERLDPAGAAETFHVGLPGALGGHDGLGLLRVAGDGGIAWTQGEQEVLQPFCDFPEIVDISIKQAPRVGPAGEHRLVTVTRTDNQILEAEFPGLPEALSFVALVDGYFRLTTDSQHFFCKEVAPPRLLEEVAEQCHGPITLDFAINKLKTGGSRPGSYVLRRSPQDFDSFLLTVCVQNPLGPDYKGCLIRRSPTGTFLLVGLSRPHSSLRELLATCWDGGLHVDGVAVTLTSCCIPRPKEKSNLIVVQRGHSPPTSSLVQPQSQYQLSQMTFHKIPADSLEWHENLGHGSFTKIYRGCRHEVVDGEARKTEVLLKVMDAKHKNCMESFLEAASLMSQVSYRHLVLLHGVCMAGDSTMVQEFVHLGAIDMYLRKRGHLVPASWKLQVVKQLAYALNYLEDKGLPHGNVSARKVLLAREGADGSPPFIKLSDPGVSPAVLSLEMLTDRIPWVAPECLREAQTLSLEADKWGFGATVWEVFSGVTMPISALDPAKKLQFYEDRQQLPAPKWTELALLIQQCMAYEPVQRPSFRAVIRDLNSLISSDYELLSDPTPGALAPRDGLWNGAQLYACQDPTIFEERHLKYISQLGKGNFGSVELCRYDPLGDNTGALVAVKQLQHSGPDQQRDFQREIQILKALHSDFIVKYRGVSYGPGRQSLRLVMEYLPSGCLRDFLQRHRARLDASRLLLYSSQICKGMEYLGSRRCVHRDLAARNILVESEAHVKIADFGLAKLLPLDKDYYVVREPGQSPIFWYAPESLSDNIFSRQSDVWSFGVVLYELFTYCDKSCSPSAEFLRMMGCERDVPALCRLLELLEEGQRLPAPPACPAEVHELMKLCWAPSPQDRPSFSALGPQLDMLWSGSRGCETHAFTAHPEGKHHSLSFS

[11] = molecular target: Tyrosine-protein kinase Fyn (Homo sapiens, UniProt P06241); test: Inhibition of Fyn kinase
[12] = molecular target: Fibroblast growth factor receptor (Homo sapiens, UniProt P22607+P11362+P22455+P21802); test: Inhibition of FGF receptor; type: protein assay
Focal adhesion kinase 1 = Focal adhesion kinase 1 (Homo sapiens, UniProt Q05397); test: Inhibition of FAK kinase
[13] = molecular target: T1, Tyrosine-protein kinase Lck; test: Inhibition of Lck kinase
[14] = molecular target: Cyclin-dependent kinase 2 (Homo sapiens, UniProt P24941); test: Inhibition of CDK2 kinase
[15] = molecular target: T1, Tyrosine-protein kinase Lck; test: Inhibition of human Lck(hLck) kinase

T1 sequence (P06239 whole entry): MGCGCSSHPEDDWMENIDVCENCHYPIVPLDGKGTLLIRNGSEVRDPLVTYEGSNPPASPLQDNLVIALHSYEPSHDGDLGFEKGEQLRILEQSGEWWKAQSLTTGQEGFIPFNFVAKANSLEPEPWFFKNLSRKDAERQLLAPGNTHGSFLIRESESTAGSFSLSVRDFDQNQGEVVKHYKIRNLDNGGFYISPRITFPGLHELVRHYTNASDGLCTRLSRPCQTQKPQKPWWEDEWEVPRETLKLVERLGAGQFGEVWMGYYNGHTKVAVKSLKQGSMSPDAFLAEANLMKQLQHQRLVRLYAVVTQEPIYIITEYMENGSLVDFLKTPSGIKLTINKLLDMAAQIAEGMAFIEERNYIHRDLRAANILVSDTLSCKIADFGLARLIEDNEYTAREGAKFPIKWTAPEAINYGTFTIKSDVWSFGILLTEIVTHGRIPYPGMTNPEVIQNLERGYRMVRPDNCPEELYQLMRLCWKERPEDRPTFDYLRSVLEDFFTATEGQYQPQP
T2 sequence (P06240 whole entry): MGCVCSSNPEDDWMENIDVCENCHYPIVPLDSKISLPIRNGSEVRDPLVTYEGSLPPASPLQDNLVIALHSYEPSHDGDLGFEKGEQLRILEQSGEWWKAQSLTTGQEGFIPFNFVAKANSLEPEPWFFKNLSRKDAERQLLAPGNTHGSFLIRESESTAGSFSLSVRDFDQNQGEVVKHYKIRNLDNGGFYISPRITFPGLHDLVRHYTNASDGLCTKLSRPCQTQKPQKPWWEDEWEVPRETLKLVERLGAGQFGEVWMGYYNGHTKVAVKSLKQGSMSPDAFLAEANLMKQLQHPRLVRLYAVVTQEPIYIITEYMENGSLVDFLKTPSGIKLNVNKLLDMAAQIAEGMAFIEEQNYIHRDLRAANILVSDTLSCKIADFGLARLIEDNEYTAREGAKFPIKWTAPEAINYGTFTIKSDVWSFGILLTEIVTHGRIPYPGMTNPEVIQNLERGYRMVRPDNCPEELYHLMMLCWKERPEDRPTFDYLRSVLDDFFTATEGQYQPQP
Sequence of Tyrosine-protein kinase Fyn (P06241 whole entry): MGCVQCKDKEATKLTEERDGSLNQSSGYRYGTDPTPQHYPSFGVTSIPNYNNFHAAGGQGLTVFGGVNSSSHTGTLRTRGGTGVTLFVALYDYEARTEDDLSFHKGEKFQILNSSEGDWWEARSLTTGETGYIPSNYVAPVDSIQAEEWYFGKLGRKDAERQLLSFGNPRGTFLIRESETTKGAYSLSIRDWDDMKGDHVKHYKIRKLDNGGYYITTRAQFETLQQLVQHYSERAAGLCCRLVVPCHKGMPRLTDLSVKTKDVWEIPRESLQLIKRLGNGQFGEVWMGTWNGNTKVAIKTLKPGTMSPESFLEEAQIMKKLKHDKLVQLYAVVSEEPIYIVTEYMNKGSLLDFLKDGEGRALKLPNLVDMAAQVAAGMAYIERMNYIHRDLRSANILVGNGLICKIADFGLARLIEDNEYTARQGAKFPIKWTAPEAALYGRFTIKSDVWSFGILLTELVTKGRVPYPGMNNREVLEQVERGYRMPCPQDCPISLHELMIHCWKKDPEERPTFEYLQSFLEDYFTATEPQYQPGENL
Sequence of Receptor tyrosine-protein kinase erbB-2 (P04626 whole entry): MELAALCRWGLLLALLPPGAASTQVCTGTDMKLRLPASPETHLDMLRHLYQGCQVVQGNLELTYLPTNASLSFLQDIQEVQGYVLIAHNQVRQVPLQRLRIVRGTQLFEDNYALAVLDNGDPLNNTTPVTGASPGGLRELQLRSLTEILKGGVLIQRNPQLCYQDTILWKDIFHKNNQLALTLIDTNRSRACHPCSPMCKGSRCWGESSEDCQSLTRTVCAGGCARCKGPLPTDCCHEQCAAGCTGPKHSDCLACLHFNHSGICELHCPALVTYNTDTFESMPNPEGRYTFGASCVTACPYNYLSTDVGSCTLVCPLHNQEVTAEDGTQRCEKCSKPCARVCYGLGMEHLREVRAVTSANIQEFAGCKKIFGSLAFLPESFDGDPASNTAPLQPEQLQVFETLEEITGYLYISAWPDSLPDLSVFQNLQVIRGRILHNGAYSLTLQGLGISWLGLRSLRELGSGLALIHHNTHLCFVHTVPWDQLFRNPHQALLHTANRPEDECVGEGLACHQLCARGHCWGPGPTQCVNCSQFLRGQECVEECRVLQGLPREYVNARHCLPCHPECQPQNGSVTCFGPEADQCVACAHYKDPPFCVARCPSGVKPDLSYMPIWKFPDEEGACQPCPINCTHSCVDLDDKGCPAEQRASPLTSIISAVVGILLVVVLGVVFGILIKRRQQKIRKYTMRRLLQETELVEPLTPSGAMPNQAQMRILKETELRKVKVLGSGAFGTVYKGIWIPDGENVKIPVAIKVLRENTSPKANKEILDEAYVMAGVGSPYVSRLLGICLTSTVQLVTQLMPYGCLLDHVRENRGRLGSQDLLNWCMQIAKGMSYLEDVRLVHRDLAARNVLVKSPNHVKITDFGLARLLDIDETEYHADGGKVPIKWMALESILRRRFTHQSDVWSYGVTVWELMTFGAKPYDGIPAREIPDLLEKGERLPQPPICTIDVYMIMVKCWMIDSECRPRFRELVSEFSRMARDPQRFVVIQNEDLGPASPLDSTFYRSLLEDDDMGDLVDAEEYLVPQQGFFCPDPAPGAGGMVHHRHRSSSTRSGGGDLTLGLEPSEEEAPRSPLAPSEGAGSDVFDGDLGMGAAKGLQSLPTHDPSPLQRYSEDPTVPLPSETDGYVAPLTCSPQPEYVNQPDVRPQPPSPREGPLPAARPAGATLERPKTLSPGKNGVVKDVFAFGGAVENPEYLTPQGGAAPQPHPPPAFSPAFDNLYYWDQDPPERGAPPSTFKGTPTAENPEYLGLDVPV
Sequence of Tyrosine-protein kinase HCK (P08631 whole entry): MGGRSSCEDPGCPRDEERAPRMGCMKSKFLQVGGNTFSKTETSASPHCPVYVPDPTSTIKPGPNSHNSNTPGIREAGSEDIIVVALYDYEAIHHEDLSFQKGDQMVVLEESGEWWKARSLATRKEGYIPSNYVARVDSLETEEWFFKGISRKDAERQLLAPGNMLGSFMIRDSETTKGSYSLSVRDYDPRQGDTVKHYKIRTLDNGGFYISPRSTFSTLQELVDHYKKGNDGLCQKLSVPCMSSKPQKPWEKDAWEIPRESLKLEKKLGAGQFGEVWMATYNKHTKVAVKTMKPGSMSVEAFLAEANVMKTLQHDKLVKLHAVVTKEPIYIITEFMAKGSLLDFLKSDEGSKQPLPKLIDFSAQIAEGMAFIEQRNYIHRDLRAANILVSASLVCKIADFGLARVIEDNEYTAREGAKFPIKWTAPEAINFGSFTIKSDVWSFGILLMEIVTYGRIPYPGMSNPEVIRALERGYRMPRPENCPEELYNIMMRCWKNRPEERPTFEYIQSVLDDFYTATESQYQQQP
Sequence of Proto-oncogene tyrosine-protein kinase Src (P12931 2-536 limits assumed): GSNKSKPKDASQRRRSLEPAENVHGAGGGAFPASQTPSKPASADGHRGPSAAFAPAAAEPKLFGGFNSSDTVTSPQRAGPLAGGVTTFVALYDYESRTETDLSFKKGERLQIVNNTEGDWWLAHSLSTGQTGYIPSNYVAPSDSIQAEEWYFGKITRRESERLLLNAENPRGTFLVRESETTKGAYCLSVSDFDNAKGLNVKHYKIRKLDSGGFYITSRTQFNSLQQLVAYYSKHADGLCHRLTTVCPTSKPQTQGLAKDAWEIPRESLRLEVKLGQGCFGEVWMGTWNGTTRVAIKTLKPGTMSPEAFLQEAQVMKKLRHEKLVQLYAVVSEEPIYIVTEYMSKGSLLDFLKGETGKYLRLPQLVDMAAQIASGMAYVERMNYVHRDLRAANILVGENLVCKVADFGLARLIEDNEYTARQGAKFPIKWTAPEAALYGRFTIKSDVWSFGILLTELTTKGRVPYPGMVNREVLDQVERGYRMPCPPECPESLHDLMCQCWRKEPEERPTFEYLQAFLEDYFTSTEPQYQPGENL
Sequence of Focal adhesion kinase 1 (Q05397 whole entry): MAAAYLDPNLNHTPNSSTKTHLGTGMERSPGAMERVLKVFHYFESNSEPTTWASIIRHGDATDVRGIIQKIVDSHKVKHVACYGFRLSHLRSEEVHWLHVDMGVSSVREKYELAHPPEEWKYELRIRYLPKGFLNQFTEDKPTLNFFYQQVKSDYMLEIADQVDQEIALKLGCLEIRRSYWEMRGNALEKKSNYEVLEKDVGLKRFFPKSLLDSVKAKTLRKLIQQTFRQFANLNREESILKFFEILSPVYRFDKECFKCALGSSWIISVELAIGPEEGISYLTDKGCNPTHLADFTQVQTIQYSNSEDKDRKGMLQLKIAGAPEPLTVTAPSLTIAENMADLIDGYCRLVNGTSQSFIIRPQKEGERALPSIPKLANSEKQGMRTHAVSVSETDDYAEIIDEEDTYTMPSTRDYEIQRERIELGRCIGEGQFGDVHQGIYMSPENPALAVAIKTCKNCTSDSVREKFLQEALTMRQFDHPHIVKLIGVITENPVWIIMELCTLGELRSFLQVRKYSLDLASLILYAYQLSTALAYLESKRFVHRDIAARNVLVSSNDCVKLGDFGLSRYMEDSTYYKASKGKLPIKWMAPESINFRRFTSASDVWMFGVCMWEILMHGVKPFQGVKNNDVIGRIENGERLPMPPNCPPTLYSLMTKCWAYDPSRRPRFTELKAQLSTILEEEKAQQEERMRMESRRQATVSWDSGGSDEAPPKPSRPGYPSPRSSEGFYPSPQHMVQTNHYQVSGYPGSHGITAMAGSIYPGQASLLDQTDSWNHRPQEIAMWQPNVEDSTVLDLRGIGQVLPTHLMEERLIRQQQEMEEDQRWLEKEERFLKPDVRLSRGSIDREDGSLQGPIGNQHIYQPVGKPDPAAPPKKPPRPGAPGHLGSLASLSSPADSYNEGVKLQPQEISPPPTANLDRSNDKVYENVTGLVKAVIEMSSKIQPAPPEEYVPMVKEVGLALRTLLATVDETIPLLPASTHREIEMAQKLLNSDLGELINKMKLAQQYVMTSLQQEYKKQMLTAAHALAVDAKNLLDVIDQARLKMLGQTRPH

Row | IC50 [1] | IC50 [2] | Compound | other results
1 | – | 45.7 µM | Cc1ccccc1NC(=O)c1sc(NC(=O)OC(C)(C)C)nc1C | –
2 | > 30000 nM | – | Cc1cc(C)c(NC(=O)c2sc(NC(=O)OC(C)(C)C)nc2C(F)(F)F)c(C)c1 | –
3 | 700 nM | 0.72 µM | COC(=O)Nc1nc(C)c(C(=O)Nc2c(C)cc(C)cc2C)s1 | –
4 | > 30000 nM | – | Cc1cc(C)c(NC(=O)c2cnc(NC(=O)OC(C)(C)C)s2)c(C)c1 | –
5 | > 30000 nM | – | CCc1nc(NC(=O)OC(C)(C)C)sc1C(=O)Nc1c(C)cc(C)cc1C | –
6 | – | 24.3 µM | COc1cccc(C)c1NC(=O)c1sc(NC(=O)OC(C)(C)C)nc1C | –
7 | > 30000 nM | – | Cc1cc(C)c(NC(=O)c2sc(NC(=O)OC(C)(C)C)nc2-c2ccccc2)c(C)c1 | –
8 | – | > 50 µM | Cc1nc(NC(=O)OC(C)(C)C)sc1C(=O)Nc1ccccc1 | –

Second part, the compound before the results:

Row | Compound | IC50 [1] | IC50 [2] | other results
9 | Cc1cccc(Cl)c1NC(=O)c1sc(NC(=O)c2ccco2)nc1C | 710 nM | – | –
10 | Cc1cccc(Cl)c1NC(=O)c1sc(NC(=O)C2CC2)nc1C | 1400 nM | – | –
11 | Cc1cc(NC(=O)c2sc(NC(=O)OC(C)(C)C)nc2C)c(C)[nH]1 | – | > 50 µM | –
12 | Cc1nc(NC(=O)OC(C)(C)C)sc1C(=O)NCC(C)(C)C | – | > 50 µM | –
13 | Cc1cccc(C)c1NC(=O)c1sc(NC(=O)OC(C)(C)C)nc1C | – | – | IC50 [3]: 4.4 µM; IC50 [4]: 7.5 µM
14 | Cc1nc(NC(=O)OC(C)(C)C)sc1C(=O)N1CCN(C=O)CC1 | – | > 50 µM | –
15 | CCCCNC(=O)Nc1nc(C)c(C(=O)Nc2c(C)cccc2Cl)s1 | 620 nM | – | –
16 | Cc1cc(C)c(NC(=O)c2sc(NC(=O)c3ccccc3)nc2C)c(C)c1 | 800 nM | 0.32 µM | –
17 | COc1cc(NC(=O)c2sc(NC(=O)OC(C)(C)C)nc2C)cc(C(F)(F)F)c1 | – | > 50 µM | –
18 | Cc1nc(NC(=O)OC(C)(C)C)sc1C(=O)NC(C)C(C)C (centres undefined) | > 50000 nM | > 50 µM | –
19 | CCCCNC(=O)Nc1nc(C)c(C(=O)Nc2c(C)cc(C)cc2C)s1 | 30 nM | 0.07 µM | –
20 | Cc1cc(C)c(NC(=O)c2sc(N(C)C(=O)OC(C)(C)C)nc2C)c(C)c1 | – | – | IC50 [5]: Not Active; IC50 [6]: Not Active
21 | Cc1cccc(Cl)c1NC(=O)c1cnc(NC(=O)c2ccccc2)s1 | 890 nM | – | –
22 | Cc1cccc(Cl)c1NC(=O)c1cnc(NC(=O)C2CC2)s1 | 35 nM | – | IC50 [7]: 10 nM; IC50 [8]: > 25 µM; IC50 [9]: 310 nM; IC50 [10]: 44 nM; IC50 [11]: 71 nM; IC50 [12]: > 25 µM; IC50 (Focal adhesion kinase 1): > 25 µM; IC50 [13]: 35 nM; IC50 [14]: > 25 µM
23 | Cc1cc(C)c(NC(=O)c2sc(NC(=O)c3ccco3)nc2C)c(C)c1 | 360 nM | – | –
24 | Cc1nc(NC(=O)OC(C)(C)C)sc1C(=O)Nc1c(Cl)cccc1Cl | – | – | IC50 [15]: 12.5 µM
25 | Cc1cc(C)c(NC(=O)c2sc(N)nc2C)c(C)c1 | – | – | IC50 [3]: 5 µM; IC50 [4]: 6.6 µM
26 | Cc1cccc(Cl)c1NC(=O)c1sc(NC(=O)OC(C)(C)C)nc1C | – | – | IC50 [3]: 28 µM; IC50 [4]: 9.6 µM
27 | Cc1nc(NC(=O)OC(C)(C)C)sc1C(=O)Nc1c(C(C)C)cccc1C(C)C | – | > 50 µM | –
28 | Cc1cccc(C(C)C)c1NC(=O)c1sc(NC(=O)OC(C)(C)C)nc1C | – | 40.3 µM | –
29 | Cc1nc(NC(=O)OC(C)(C)C)sc1C(=O)Nc1ccc(Cl)cc1Cl | – | > 50 µM | –
30 | Cc1cccc(Cl)c1NC(=O)c1sc(NC(=O)c2ccccc2)nc1C | 4500 nM | – | –
31 | CNC(=O)Nc1nc(C)c(C(=O)Nc2c(C)cc(C)cc2C)s1 | 240 nM | 0.17 µM | –
32 | Cc1cccc(C(C)(C)C)c1NC(=O)c1sc(NC(=O)OC(C)(C)C)nc1C | – | > 50 µM | –
33 | Cc1cc(C)c(NC(=O)c2cnc(NC(=O)C3CC3)s2)c(C)c1 | 18 nM | – | –
34 | Cc1cc(Br)cc(C)c1NC(=O)c1sc(NC(=O)OC(C)(C)C)nc1C | – | – | IC50 [3]: 1.4 µM; IC50 [4]: 2.4 µM
35 | Cc1nc(NC(=O)OC(C)(C)C)sc1C(=O)NCC1CCCCC1 | – | > 50 µM | –
36 | Cc1nc(NC(=O)OC(C)(C)C)sc1C(=O)Nc1ccccc1[N+](=O)[O-] | – | > 50 µM | –
37 | Cc1cc(C)c(N(C)C(=O)c2sc(NC(=O)OC(C)(C)C)nc2C)c(C)c1 | – | – | IC50 [5]: Not Active; IC50 [6]: Not Active
38 | Cc1cc(C)c(NC(=O)c2sc(NC(=O)OC(C)(C)C)nc2C)c(C)c1 | – | – | IC50 [3]: 1.5 µM; IC50 [4]: 3 µM
